Literature values, collected in patent US11331392B2, “Biodegradable thermo-responsive polymers and uses thereof” (The Trustees of Columbia University in the City of New York, priority 2014, dated 2022).

Test system: endothelial and tumor cells

Cc1cc(O)ccc1O [methylhydroquinone (MHQ), methylhydroquinone]
concentration range inhibiting growth of cells in culture: micromolar range
